What was measured:
[1] = system: Common White (Pieris Rapae); assay: Comparative Test 2: control of common white on cabbage by prick-in-hole application at transplanting; format: in vivo; conditions: Dosage 10 mgAI/plant, 27 days after the transplanting
Description: An agent containing, as an active ingredient (AI), each of the compounds shown in the table and a comparative compound 1 (the compound with Compound No. 216 described in JP-A-2001-131141), was put into a prick-in-hole on the ground, and then cabbage seedlings (Variety: YR Seitoku) transplanted onto the treated hole (at the end of April). 27 days after the transplanting, the number of larvae of common white was counted. The control value was calculated according to the expression indicated below, and it was then evaluated in accordance with the criterion noted in Comparative test 1 above. One test group consisted of 20 cabbage loaves. [formula]

[2] = system: Common Cutworm (Spodoptera litura); assay: Test Example 2: insecticidal activity on common cutworm, cabbage leaf disc dip; format: in vivo; conditions: foliar, 192 h, second instar larvae, eight days after the inoculation, read-out: insecticidal activity judged from mortality
From the text: (§1) A cabbage leaf disc (variety: Shikidori) cut into 7 cm-diameter was dipped for about 30 seconds into a chemical solution prepared by diluting a preparation containing each compound listed in Tables 1 and 2 as an active ingredient to adjust the concentration to 50 ppm. After dried, it was put into a plastic Petri dish with a diameter of 9 cm and inoculated with ten of the second instar larvae of common cutworm. Eight days after the inoculation, the dead and alive larvae were counted. The mortality was calculated and the insecticidal activity was judged in the same manner as in Test Example 1. The test was carried out with three replications under the condition of 25° C., 50-60% RH and 16L-8D photoperiod.

[3] = system: Diamond Back Moth (Plutella xylostella); assay: Test Example 1: insecticidal activity on diamond back moth, cabbage leaf disc dip; format: in vivo; conditions: foliar, 192 h, third instar larvae, eight days after the inoculation, read-out: insecticidal activity judged from mortality
From the text: as §1, with “the third” for “the second”, “of diamond back moths.” for “of common cutworm.”, “calculated according to the following equation” for “calculated”, “judged according to” for “judged in”, “the criterion shown below.” for “the same manner as in Test Example 1.”, “photoperiod. [formula]” for “photoperiod.”

[4] = logP (pH2.3), physical properties of Tables 1 to 3; format: physicochemical
From the text: However, the present invention is not limited to these compounds. In the tables, the term “physical properties” means a melting point or logp. The symbol “Me” represents a methyl group, “Et” represents an ethyl group, “Pr” represents a propyl group, “-n” represents normal, and “-i” represents iso.

Row | Structure (SMILES) | Physical properties logP(pH2.3) [4] | also measured
1 | Cc1cc(C(F)(C(F)(F)F)C(F)(F)F)ccc1NC(=O)c1cccc(I)c1C(=O)N[C@@H](C)C[S+](C)[O-] (some centres unmarked) [Compound 1-4] | – | Evaluation of control value (27 days later) [1]: 10 (Mortality 91%-100%)
2 | Cc1cc(C(F)(C(F)(F)F)C(F)(F)F)ccc1NC(=O)c1cccc(I)c1C(=O)N[C@@H](C)CS(C)(=O)=O [Compound 1-5] | – | Evaluation of control value (27 days later) [1]: 10 (Mortality 91%-100%)
3 | CSC[C@H](C)NC(=O)c1c(I)cccc1C(=O)Nc1ccc(OC(F)(F)F)cc1C [Compound 1-42, (S)-3-iodo-N^1-(2-methyl-4-trifluoromethoxyphenyl)-N^2-(1-methyl-2-methylthioethyl)phthalamide] | – | mortality at 50 ppm [2]: 100%; mortality at 50 ppm [3]: 100%
4 | Cc1cc(OC(F)(F)F)ccc1NC(=O)c1cccc(I)c1C(=O)N[C@@H](C)CS(C)(=O)=O [Compound 1-44, (S)-3-iodo-N′-(2-methyl-4-trifluoromethoxyphenyl)-N^2— (1-methyl-2-methylsulfonylethyl)phthalamide] | – | mortality at 50 ppm [2]: 100%; mortality at 50 ppm [3]: 100%
5 | Cc1cc(C(F)(C(F)(F)F)C(F)(F)F)ccc1NC(=O)c1cccc(Br)c1C(=O)N[C@@H](C)CS(C)(=O)=O [Compound 1-74] | – | Evaluation of control value (27 days later) [1]: 10 (Mortality 91%-100%)
6 | Cc1cc(C(F)(C(F)(F)F)C(F)(F)F)ccc1NC(=O)c1cccc(Cl)c1C(=O)N[C@@H](C)CS(C)(=O)=O [Compound 1-77] | – | Evaluation of control value (27 days later) [1]: 10 (Mortality 91%-100%)
7 | CC[C@@H](CSC)NC(=O)c1c(I)cccc1C(=O)Nc1ccc(C(F)(C(F)(F)F)C(F)(F)F)cc1C [Compound 1-345] | 4.62 | –
8 | CC[C@@H](C[S+](C)[O-])NC(=O)c1c(I)cccc1C(=O)Nc1ccc(C(F)(C(F)(F)F)C(F)(F)F)cc1C (some centres unmarked) [Compound 1-346] | 2.90 | –
9 | CC[C@@H](CS(C)(=O)=O)NC(=O)c1c(I)cccc1C(=O)Nc1ccc(C(F)(C(F)(F)F)C(F)(F)F)cc1C [Compound 1-347] | 3.45 | –
10 | CSC[C@@H](NC(=O)c1c(Cl)cccc1C(=O)Nc1ccc(C(F)(C(F)(F)F)C(F)(F)F)cc1C)C(C)C [Compound 1-348] | 4.77 | –
11 | Cc1cc(C(F)(C(F)(F)F)C(F)(F)F)ccc1NC(=O)c1cccc(Cl)c1C(=O)N[C@H](C[S+](C)[O-])C(C)C (some centres unmarked) [Compound 1-349] | 3.03 | –
12 | Cc1cc(C(F)(C(F)(F)F)C(F)(F)F)ccc1NC(=O)c1cccc(Cl)c1C(=O)N[C@H](CS(C)(=O)=O)C(C)C [Compound 1-350] | 3.54 | –
13 | CSC[C@@H](NC(=O)c1c(Br)cccc1C(=O)Nc1ccc(C(F)(C(F)(F)F)C(F)(F)F)cc1C)C(C)C [Compound 1-351] | 4.80 | –
14 | Cc1cc(C(F)(C(F)(F)F)C(F)(F)F)ccc1NC(=O)c1cccc(Br)c1C(=O)N[C@H](C[S+](C)[O-])C(C)C (some centres unmarked) [Compound 1-352] | 3.06 | –
15 | Cc1cc(C(F)(C(F)(F)F)C(F)(F)F)ccc1NC(=O)c1cccc(Br)c1C(=O)N[C@H](CS(C)(=O)=O)C(C)C [Compound 1-353] | 3.62 | –
16 | CSC[C@@H](NC(=O)c1c(I)cccc1C(=O)Nc1ccc(C(F)(C(F)(F)F)C(F)(F)F)cc1C)C(C)C [Compound 1-354] | 4.97 | –
17 | Cc1cc(C(F)(C(F)(F)F)C(F)(F)F)ccc1NC(=O)c1cccc(I)c1C(=O)N[C@H](C[S+](C)[O-])C(C)C (some centres unmarked) [Compound 1-355] | 3.13 | –
18 | Cc1cc(C(F)(C(F)(F)F)C(F)(F)F)ccc1NC(=O)c1cccc(I)c1C(=O)N[C@H](CS(C)(=O)=O)C(C)C [Compound 1-356] | 3.70 | –
19 | CSC[C@H](CC(C)C)NC(=O)c1c(Cl)cccc1C(=O)Nc1ccc(C(F)(C(F)(F)F)C(F)(F)F)cc1C [Compound 1-357] | 5.11 | –
20 | Cc1cc(C(F)(C(F)(F)F)C(F)(F)F)ccc1NC(=O)c1cccc(Cl)c1C(=O)N[C@@H](CC(C)C)C[S+](C)[O-] (some centres unmarked) [Compound 1-358] | 3.27 | –
21 | Cc1cc(C(F)(C(F)(F)F)C(F)(F)F)ccc1NC(=O)c1cccc(Cl)c1C(=O)N[C@@H](CC(C)C)CS(C)(=O)=O [Compound 1-359] | 3.77 | –
22 | CSC[C@H](CC(C)C)NC(=O)c1c(Br)cccc1C(=O)Nc1ccc(C(F)(C(F)(F)F)C(F)(F)F)cc1C [Compound 1-360] | 5.16 | –
23 | Cc1cc(C(F)(C(F)(F)F)C(F)(F)F)ccc1NC(=O)c1cccc(Br)c1C(=O)N[C@@H](CC(C)C)C[S+](C)[O-] (some centres unmarked) [Compound 1-361] | 3.30 | –
24 | Cc1cc(C(F)(C(F)(F)F)C(F)(F)F)ccc1NC(=O)c1cccc(Br)c1C(=O)N[C@@H](CC(C)C)CS(C)(=O)=O [Compound 1-362] | 3.82 | –
25 | CSC[C@H](CC(C)C)NC(=O)c1c(I)cccc1C(=O)Nc1ccc(C(F)(C(F)(F)F)C(F)(F)F)cc1C [Compound 1-363] | 5.24 | –
26 | Cc1cc(C(F)(C(F)(F)F)C(F)(F)F)ccc1NC(=O)c1cccc(I)c1C(=O)N[C@@H](CC(C)C)C[S+](C)[O-] (some centres unmarked) [Compound 1-364] | 3.39 | –
27 | Cc1cc(C(F)(C(F)(F)F)C(F)(F)F)ccc1NC(=O)c1cccc(I)c1C(=O)N[C@@H](CC(C)C)CS(C)(=O)=O [Compound 1-365] | 3.87 | –

Source: US20080051457A1, “Optically Active Phthalamide Derivative, Agricultural or Horticultural Insecticide, and Method of Using the Same” (priority 2004, published 2008)
